Measurements as given in ChEMBL document CHEMBL5038655, “Development of Novel Dihydrofuro[3,4-d]pyrimidine Derivatives as HIV-1 NNRTIs to Overcome the Highly Resistant Mutant Strains F227L/V106A and K103N/Y181C” (J Med Chem, 2022).
In brackets after ≈: the same amount, converted by molar mass.

Key:
[1] = biological target: Human immunodeficiency virus type 1 reverse transcriptase (Human immunodeficiency virus 1, UniProt Q72547); test: Inhibition of wild type HIV-1 reverse transcriptase using biotin-labelled dNTPs as substrate incubated for 2 hrs by ELISA
[2] = Selectivity index, ratio of CC50 for human MT4 cells to EC50 for antiviral activity against HIV-1 IIIB infected in human MT4 cells; assay type: toxicity, cell-based; details: MT4 cells (uninfected and infected with HIV-1 IIIB), read-out: Ratio CC50/EC50
[3] = Selectivity index, ratio of CC50 for human MT4 cells to EC50 for antiviral activity against HIV-1 IIIB harboring K103N/Y181C double mutant infected in human MT4 cells; assay type: toxicity, cell-based; details: read-out: Ratio CC50/EC50
[4] = Cytotoxicity against human MT4 cells assessed as reduction in cell viability incubated for 5 days by MTT assay; assay type: toxicity, cell-based; details: time 5 day
[5] = system: Human immunodeficiency virus 1; test: Antiviral activity against HIV-1 IIIB infected in human MT4 cells assessed as protection against virus-induced cytotoxicity incubated for 5 days by MTT assay; assay type: functional, organism-based; details: Human immunodeficiency virus 1, IIIB, MT4, 120 h
[6] = system: Human immunodeficiency virus 1; test: Antiviral activity against HIV-1 IIIB harboring K103N/Y181C double mutant infected in human MT4 cells assessed as protection against virus-induced cytotoxicity incubated for 5 days by MTT assay; assay type: functional, organism-based; details: Human immunodeficiency virus 1, IIIB, MT4, 120 h
[7] = system: Human immunodeficiency virus 1; test: Antiviral activity against HIV-1 harboring reverse transcriptase Y181C mutant infected in human MT4 cells assessed as protection against virus-induced cytopathic effect incubated for 5 days by MTT assay; details: Human immunodeficiency virus 1, MT4, 120 h
[8] = system: Human immunodeficiency virus 1; test: Potency index, ratio of rilpivirine EC50 to test compound EC50 for antiviral activity against HIV-1 harboring reverse transcriptase Y188L mutant infected in human MT4 cells assessed as protection against virus-induced cytopathic effect incubated for 5 days by MTT assay; assay type: functional; details: time 5 day
[9] = system: Human immunodeficiency virus 1; test: Antiviral activity against HIV-1 harboring reverse transcriptase Y188L mutant infected in human MT4 cells assessed as protection against virus-induced cytopathic effect incubated for 5 days by MTT assay; details: Human immunodeficiency virus 1, MT4, 120 h
[10] = Cmax in Sprague-Dawley rat at 2 mg/kg, iv measured upto 10 hrs by LC-MS/MS analysis; assay type: ADME, organism-based; design: route intravenous, dose 2 mg/kg, time <=10; details: in vivo
[11] = system: Human immunodeficiency virus 1; test: Potency index, ratio of rilpivirine EC50 to test compound EC50 for antiviral activity against HIV-1 harboring reverse transcriptase F227L/V106A mutant infected in human MT4 cells assessed as protection against virus-induced cytopathic effect incubated for 5 days by MTT assay; assay type: functional; details: time 5 day
[12] = Cmax in Sprague-Dawley rat at 10 mg/kg, po measured upto 12 hrs by LC-MS/MS analysis; assay type: ADME, organism-based; design: route oral, dose 10 mg/kg, time <=12; details: in vivo
[13] = Terminal half life in Sprague-Dawley rat at 2 mg/kg, iv measured upto 10 hrs by LC-MS/MS analysis; assay type: ADME, organism-based; details: in vivo, read-out: beta t1/2 (converted)
[14] = system: Human immunodeficiency virus 1; test: Antiviral activity against HIV-1 harboring reverse transcriptase E138K mutant infected in human MT4 cells assessed as protection against virus-induced cytopathic effect incubated for 5 days by MTT assay; details: Human immunodeficiency virus 1, MT4, 120 h
[15] = Clearance in Sprague-Dawley rat at 2 mg/kg, iv measured upto 10 hrs by LC-MS/MS analysis; assay type: ADME, organism-based; details: in vivo
[16] = Acute toxicity in Kunming mouse assessed as change in body weight at 2000 mg/kg, po measured for 7 days; assay type: organism-based; details: in vivo, time 7 day
[17] = Aqueous solubility of the compound at pH 2.0 by HPLC analysis; assay type: physicochemical; details: buffer
[18] = Oral bioavailability in Sprague-Dawley rat at 10 mg/kg measured upto 12 hrs by LC-MS/MS analysis; assay type: ADME, organism-based; details: in vivo
[19] = Aqueous solubility of the compound at pH 7.0 by HPLC analysis; assay type: physicochemical; details: buffer
[20] = Tmax in Sprague-Dawley rat at 2 mg/kg, iv measured upto 10 hrs by LC-MS/MS analysis; assay type: ADME, organism-based; details: in vivo
[21] = AUC(0 to infinity) in Sprague-Dawley rat at 10 mg/kg, po measured upto 12 hrs by LC-MS/MS analysis; assay type: ADME, organism-based; design: route oral, dose 10 mg/kg, time <=12; details: in vivo
[22] = AUC(0 to t) in Sprague-Dawley rat at 2 mg/kg, iv measured upto 10 hrs by LC-MS/MS analysis; assay type: ADME, organism-based; design: route intravenous, dose 2 mg/kg, time <=10; details: in vivo
[23] = system: Human immunodeficiency virus 1; test: Antiviral activity against HIV-1 harboring reverse transcriptase F227L/V106A mutant infected in human MT4 cells assessed as protection against virus-induced cytopathic effect incubated for 5 days by MTT assay; details: Human immunodeficiency virus 1, MT4, 120 h
[24] = system: Human immunodeficiency virus 1; test: Antiviral activity against HIV1 L1001 infected in human MT4 cells assessed as protection against virus-induced cytopathic effect incubated for 5 days by MTT assay; assay type: functional, organism-based; details: Human immunodeficiency virus 1, L1001, MT4, 120 h
[25] = Aqueous solubility of the compound at pH 7.4 by HPLC analysis; assay type: physicochemical; details: buffer
[26] = system: Human immunodeficiency virus 1; test: Antiviral activity against HIV-1 harboring reverse transcriptase K103N mutant infected in human MT4 cells assessed as protection against virus-induced cytopathic effect incubated for 5 days by MTT assay; details: Human immunodeficiency virus 1, MT4, 120 h
[27] = Terminal half life in Sprague-Dawley rat at 10 mg/kg, po measured upto 12 hrs by LC-MS/MS analysis; assay type: ADME, organism-based; details: in vivo, read-out: beta t1/2 (converted)
[28] = Tmax in Sprague-Dawley rat at 10 mg/kg, po measured upto 12 hrs by LC-MS/MS analysis; assay type: ADME, organism-based; details: in vivo
[29] = AUC(0 to infinity) in Sprague-Dawley rat at 2 mg/kg, iv measured upto 10 hrs by LC-MS/MS analysis; assay type: ADME, organism-based; design: route intravenous, dose 2 mg/kg, time <=10; details: in vivo
[30] = AUC(0 to t) in Sprague-Dawley rat at 10 mg/kg, po measured upto 12 hrs by LC-MS/MS analysis; assay type: ADME, organism-based; design: route oral, dose 10 mg/kg, time <=12; details: in vivo

## Cc1cc(/C=C/C#N)cc(C)c1Oc1nc(Nc2ccc(N3CCC(NS(N)(=O)=O)CC3)cc2)nc2c1COC2
[1]
  IC50: 1320 nM

## Cc1cc(/C=C/C#N)cc(C)c1Oc1nc(NC2CCN(c3ccc(C(N)=O)cc3)CC2)nc2c1COC2
[2]
  selectivity ratio: > 97900
[1]
  IC50: 60 nM
[3]
  selectivity ratio: > 234
[4]
  CC50 at 120 h: > 233000 nM
[5]
  EC50: 2.38 nM
[6]
  EC50: 992 nM

## Cc1cc(/C=C/C#N)cc(C)c1Oc1nc(Nc2ccc(N3CCC(NS(C)(=O)=O)CC3)cc2)nc2c1COC2
[1]
  IC50: 460 nM

## Cc1cc(/C=C/C#N)cc(C)c1Oc1nc(Nc2ccc(N3CCCC(NS(N)(=O)=O)C3)cc2)nc2c1COC2 (centres undefined)
[1]
  IC50: 780 nM

## Cc1cc(/C=C/C#N)cc(C)c1Oc1nc(Nc2ccc(CN3CCN(S(N)(=O)=O)CC3)cc2)nc2c1COC2
[1]
  IC50: 280 nM

## Cc1cc(/C=C/C#N)cc(C)c1Oc1nc(NC2CCN(Cc3ccc(C(N)=O)cc3)CC2)nc2c1COC2
[7]
  EC50: 6.09 nM
[2]
  selectivity ratio: 8450
[8]
  Ratio EC50: 4.4
[9]
  EC50: 18 nM
[1]
  IC50: 140 nM
[3]
  selectivity ratio: 2060
[10]
  Cmax: 480 ng/mL
[11]
  Ratio EC50: 8.4
[12]
  Cmax: 250 ng/mL
[13]
  half-life: 52.8 min
[4]
  CC50 at 120 h: 24100 nM
[14]
  EC50: 6.76 nM
[15]
  clearance: 66.3 mL/min/kg
[16]
  Activity: Non-Toxic
[17]
  solubility: 187 µg/mL (≈ 356 µM)
[18]
  bioavailability: 32.1%
[19]
  solubility: 25.4 µg/mL (≈ 48.4 µM)
[20]
  Tmax: 1.98 min
[5]
  EC50: 2.85 nM
[21]
  AUC(0-inf): 809 ng·h/mL
[22]
  AUC(0-t) at 10 h: 409 ng·h/mL
[23]
  EC50: 9.67 nM
[24]
  EC50: 3.9 nM
[25]
  solubility: 5.24 µg/mL (≈ 9.99 µM)
[26]
  EC50: 2.14 nM
[27]
  half-life: 63 min
[28]
  Tmax: 127 min
[29]
  AUC(0-inf): 503 ng·h/mL
[6]
  EC50: 11.7 nM
[30]
  AUC(0-t) at 12 h: 801 ng·h/mL

## Cc1cc(/C=C/C#N)cc(C)c1Oc1nc(NC2CCN(c3ccc(NS(N)(=O)=O)cc3)CC2)nc2c1COC2
[7]
  EC50: 46.5 nM
[2]
  selectivity ratio: 1370
[9]
  EC50: 141 nM
[1]
  IC50: 120 nM
[3]
  selectivity ratio: 260
[4]
  CC50 at 120 h: 23000 nM
[14]
  EC50: 34.6 nM
[5]
  EC50: 16.8 nM
[23]
  EC50: 19.9 nM
[24]
  EC50: 1250 nM
[26]
  EC50: 13.1 nM
[6]
  EC50: 88.9 nM

## Cc1cc(/C=C/C#N)cc(C)c1Oc1nc(NC2CCN(Cc3ccc(S(N)(=O)=O)cc3)CC2)nc2c1COC2
[7]
  EC50: 7.71 nM
[2]
  selectivity ratio: 2360
[9]
  EC50: 38 nM
[1]
  IC50: 140 nM
[3]
  selectivity ratio: 595
[4]
  CC50 at 120 h: 14700 nM
[14]
  EC50: 10.3 nM
[5]
  EC50: 6.24 nM
[23]
  EC50: 11.9 nM
[24]
  EC50: 5.12 nM
[26]
  EC50: 5.97 nM
[6]
  EC50: 24.7 nM

## Cc1cc(/C=C/C#N)cc(C)c1Oc1nc(Nc2ccc(C3CCCN(S(C)(=O)=O)CC3)cc2)nc2c1COC2 (centres undefined)
[1]
  IC50: 230 nM

## Cc1cc(/C=C/C#N)cc(C)c1Oc1nc(NC2CCN(c3ccc(S(N)(=O)=O)cc3)CC2)nc2c1COC2
[2]
  selectivity ratio: 6530
[1]
  IC50: 60 nM
[3]
  selectivity ratio: 23
[4]
  CC50 at 120 h: 27300 nM
[5]
  EC50: 4.18 nM
[6]
  EC50: 1300 nM

## Cc1cc(/C=C/C#N)cc(C)c1Oc1nc(Nc2ccc(N3CCN(S(N)(=O)=O)CC3)cc2)nc2c1COC2
[1]
  IC50: 710 nM

## Cc1cc(/C=C/C#N)cc(C)c1Oc1nc(Nc2ccc(CN3CCN(S(C)(=O)=O)CC3)cc2)nc2c1COC2
[1]
  IC50: 150 nM

## Cc1cc(/C=C/C#N)cc(C)c1Oc1nc(Nc2ccc(N3CCC(NS(N)(=O)=O)C3)cc2)nc2c1COC2 (centres undefined)
[1]
  IC50: 1060 nM
